Laboratory results taken from the supplement of paper PMC5908809.

Legend:
[1] = system: NKL (IL-2 2.5 ng/mL); experiment: percent inhibition of viability; higher = more inhibition; conditions: 72 h
[2] = system: KAI3 (IL-2 2.5 ng/mL); experiment: as above; conditions: 72 h
[3] = system: normal primary NK cells, pool 2 (3 donors) (IL-2 2.5 ng/mL); experiment: as above; conditions: 72 h
[4] = system: normal primary NK cells, pool 1 (3 donors), resting (IL-2 0 ng/mL); experiment: as above; conditions: 72 h
[5] = system: YT (IL-2 2.5 ng/mL); experiment: as above; conditions: 72 h
[6] = system: SNK-6 (IL-2 2.5 ng/mL); experiment: as above; conditions: 72 h
[7] = system: normal primary NK cells, pool 1 (3 donors) (IL-2 2.5 ng/mL); experiment: as above; conditions: 72 h
[8] = system: NK-92 (IL-2 2.5 ng/mL); experiment: as above; conditions: 72 h
[9] = system: NK-YS (IL-2 2.5 ng/mL); experiment: as above; conditions: 72 h
[10] = system: normal primary NK cells, pool 3 (3 donors) (IL-2 2.5 ng/mL); experiment: as above; conditions: 72 h
[11] = system: IMC-1 (IL-2 20 ng/mL); experiment: as above; conditions: 72 h
[12] = system: KHYG-1 (IL-2 2.5 ng/mL); experiment: as above; conditions: 72 h
[13] = system: DERL-7 (IL-2 2.5 ng/mL); experiment: as above; conditions: 72 h
[14] = system: normal NK cells expanded with K562-aAPC; experiment: drug sensitivity score (DSS) (DSS units); higher = more sensitive; extreme values may be limits of the assay; conditions: 72 h; IL-2 2.5 ng/mL
Experimental: (§1)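 Drug sensitivity and resistance testing on K562-aAPC-expanded normal NK cells: 5 concentrations (10-fold steps over a 10,000-fold range), 72 h at 37 °C, viability by CellTiter-Glo normalised to DMSO and benzethonium chloride controls; DSS from the fitted curve.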

[15] = system: normal NK cells expanded with K562-aAPC; experiment: percent inhibition of viability; higher = more inhibition; conditions: 72 h, IL-2 2.5 ng/mL
Experimental: as §1

[16] = system: NKL (IL-2 2.5 ng/mL); experiment: drug sensitivity score (DSS) (DSS units); higher = more sensitive; extreme values may be limits of the assay; conditions: 72 h
[17] = system: KAI3 (IL-2 2.5 ng/mL); experiment: as above; conditions: 72 h
[18] = system: normal primary NK cells, pool 2 (3 donors) (IL-2 2.5 ng/mL); experiment: as above; conditions: 72 h
[19] = system: normal primary NK cells, pool 1 (3 donors), resting (IL-2 0 ng/mL); experiment: as above; conditions: 72 h
[20] = system: YT (IL-2 2.5 ng/mL); experiment: as above; conditions: 72 h
[21] = system: SNK-6 (IL-2 2.5 ng/mL); experiment: as above; conditions: 72 h
[22] = system: normal primary NK cells, pool 1 (3 donors) (IL-2 2.5 ng/mL); experiment: as above; conditions: 72 h
[23] = system: NK-92 (IL-2 2.5 ng/mL); experiment: as above; conditions: 72 h
[24] = system: NK-YS (IL-2 2.5 ng/mL); experiment: as above; conditions: 72 h
[25] = system: normal primary NK cells, pool 3 (3 donors) (IL-2 2.5 ng/mL); experiment: as above; conditions: 72 h
[26] = system: IMC-1 (IL-2 20 ng/mL); experiment: as above; conditions: 72 h
[27] = system: KHYG-1 (IL-2 2.5 ng/mL); experiment: as above; conditions: 72 h
[28] = system: DERL-7 (IL-2 2.5 ng/mL); experiment: as above; conditions: 72 h

COc1ccc(Cl)c(Nc2nc3ccccc3nc2NS(=O)(=O)c2cccc(NC(=O)C(C)(C)N)c2)c1 [Pilaralisib] (max concentration tested 2500 nM)
percent inhibition of viability [%]
Conditions | 0.25 nM | 2.5 nM | 25 nM | 250 nM | 2500 nM
[1] | -14.9 | -17.9 | -13.7 | 0.37 | 31.5
[2] | -9.17 | -2.97 | -7.92 | 0.18 | 28.9
[3] | -6.75 | -2.47 | 3.08 | 7.62 | 22.6
[4] | -1.59 | 14 | 8.93 | 7.44 | 20.9
[5] | -4.96 | -1.45 | 0.38 | 4.73 | 42
[6] | -25.1 | -17.9 | -11.5 | -18.6 | 12.9
[7] | -2.73 | -2.17 | 6.91 | 0.33 | 11.2
[8] | 1.29 | 7.6 | 3.1 | 33.3 | 47.3
[9] | -9.63 | -5.01 | -7.74 | -2.2 | 23.1
[10] | -0.55 | -0.41 | 8.73 | -3.82 | 16
[11] | -10.7 | -5.75 | -6.19 | -0.79 | 3.28
[12] | -8.15 | -0.08 | -3.78 | 6.51 | 17.4
[13] | 4.27 | -2.64 | 5.48 | 2.26 | 47.2
[15] | -5.86 | -9.89 | -4.45 | 9.09 | 13

Conditions | drug sensitivity score
[14] | 0.55
[16] | 1.45
[17] | 1.25
[18] | 1.39
[19] | 1.41
[20] | 2.91
[21] | 0.01
[22] | 0.02
[23] | 6.61
[24] | 0.68
[25] | 0.19
[26] | 0
[27] | 1.04
[28] | 2.77

O=C(NC[C@H](O)CO)c1ccncc1Nc1ccc(I)cc1F [Pimasertib] (max concentration tested 10000 nM)
percent inhibition of viability [%]
Conditions | 1 nM | 10 nM | 100 nM | 1000 nM | 10000 nM
[1] | -5.35 | 10.9 | 45.4 | 63.2 | 66.3
[2] | -9.91 | 7.15 | 14.8 | 26.4 | 27.1
[3] | -12.9 | 1.34 | 0.74 | 1.01 | 13.2
[4] | 10.1 | -6.83 | -15.1 | 8.84 | 24.8
[5] | 0.32 | 1.92 | -0.1 | 10.8 | 10.6
[6] | -12.2 | -4.53 | -21 | -22.5 | -8.46
[7] | -8.76 | 5.99 | 2.83 | 15.8 | 22.1
[8] | 6.11 | -18.6 | -12.1 | -18.6 | -16.4
[9] | -5.36 | -3.17 | -0.42 | 15.1 | 19.9
[10] | -8.93 | -10.8 | -10.3 | -6.25 | 5.59
[11] | -6.58 | -3.26 | -9.96 | -4.58 | 5.6
[12] | -2.11 | 9.27 | 31.9 | 59.1 | 61.3
[13] | 0.5 | 14.9 | 29.4 | 37.8 | 49.7
[15] | 0.25 | -8.62 | 0.85 | 3.75 | 18

Conditions | drug sensitivity score
[14] | 0.89
[16] | 18.1
[17] | 5.63
[18] | 0.17
[19] | 2.06
[20] | 0.17
[21] | 0
[22] | 2.21
[23] | 0
[24] | 2.03
[25] | 0
[26] | 0
[27] | 14.8
[28] | 11.6
